According to ChEMBL document CHEMBL1697781, “Assessment of the health effects of chemicals in humans: II. Construction of an adverse effects database for QSAR modeling” (Curr Drug Discov Technol, 2004):

What was measured:
Conditions in all cases: human; call rule not given here
Hepatotoxicity [1] = experiment: FDA HLAED, liver enzyme composite activity
Hepatotoxicity [2] = experiment: FDA HLAED, alkaline phosphatase increase
Hepatotoxicity [3] = experiment: FDA HLAED, serum glutamic oxaloacetic transaminase (SGOT) increase
Hepatotoxicity [4] = experiment: FDA HLAED, serum glutamic pyruvic transaminase (SGPT) increase
Hepatotoxicity [5] = experiment: FDA HLAED, lactate dehydrogenase (LDH) increase
Hepatotoxicity [6] = experiment: FDA HLAED, gamma-glutamyl transferase (GGT) increase
For GGT Increase - Index Value in this document: reference of the scale not given here.
For LDH Increase - Index Value in this document: reference of the scale not given here.

| Structure (SMILES) | Composite Activity - Active (Hepatotoxicity [1]) | Composite Activity - Marginal (Hepatotoxicity [1]) | Composite Activity - Score (Hepatotoxicity [1]) | Alkaline Phosphatase Increase - Activity Score (Hepatotoxicity [2]) | Alkaline Phosphatase Increase - Index Value (Hepatotoxicity [2]) | Alkaline Phosphatase Increase - Number of Reports (Hepatotoxicity [2]) | SGOT Increase - Activity Score (Hepatotoxicity [3]) | SGOT Increase - Index Value (Hepatotoxicity [3]) | SGOT Increase - Number of Reports (Hepatotoxicity [3]) | SGPT Increase - Activity Score (Hepatotoxicity [4]) | SGPT Increase - Index Value (Hepatotoxicity [4]) | SGPT Increase - Number of Reports (Hepatotoxicity [4]) | LDH Increase - Activity Score (Hepatotoxicity [5]) | LDH Increase - Index Value (Hepatotoxicity [5]) | LDH Increase - Number of Reports (Hepatotoxicity [5]) | GGT Increase - Activity Score (Hepatotoxicity [6]) | GGT Increase - Index Value (Hepatotoxicity [6]) | GGT Increase - Number of Reports (Hepatotoxicity [6]) |
| --- | --- | --- | --- | --- | --- | --- | --- | --- | --- | --- | --- | --- | --- | --- | --- | --- | --- | --- |
| CCCCNc1cc(C(=O)O)cc(S(N)(=O)=O)c1Oc1ccccc1 [BUMETANIDE] | 0 | 0 | Inactive | Inactive | 0 | < 4 | Inactive | 0 | < 4 | Inactive | 0 | < 4 | Inactive | 0 | < 4 | Inactive | 0 | < 4 |
| CO[C@]12CC[C@@]3(C[C@@H]1[C@](C)(O)C(C)(C)C)[C@H]1Cc4ccc(O)c5c4[C@@]3(CCN1CC1CC1)[C@H]2O5 [BUPRENORPHINE] | 0 | 0 | Inactive | Inactive | 0 | < 4 | Inactive | 0 | < 4 | Inactive | 0 | < 4 | Inactive | 0 | < 4 | Inactive | 0 | < 4 |
| CC(NC(C)(C)C)C(=O)c1cccc(Cl)c1 (stereo unspecified) [BUPROPION] | 0 | 0 | Inactive | Inactive | 0 | < 4 | Inactive | 0 | < 4 | Inactive | 0 | < 4 | Inactive | 0 | < 4 | Inactive | 0 | < 4 |
| O=C1CC2(CCCC2)CC(=O)N1CCCCN1CCN(c2ncccn2)CC1 [BUSPIRONE] | 0 | 1 | Inactive | Inactive | 0.9 | >= 4 | Inactive | 2.4 | >= 4 | Marginally Active | 3.1 | >= 4 | Inactive | 0.4 | < 4 | Inactive | 0.6 | < 4 |
| CN(Cc1ccc(C(C)(C)C)cc1)Cc1cccc2ccccc12 [BUTENAFINE] | 0 | 0 | Inactive | Inactive | 0 | < 4 | Inactive | 0 | < 4 | Inactive | 0 | < 4 | Inactive | 0 | < 4 | Inactive | 0 | < 4 |
| Clc1ccc(CCC(Cn2ccnc2)Sc2c(Cl)cccc2Cl)cc1 (stereo unspecified) [BUTOCONAZOLE] | 0 | 0 | Inactive | Inactive | 0.2 | < 4 | Inactive | 0 | < 4 | Inactive | 0.2 | < 4 | Inactive | 0 | < 4 | Inactive | 0 | < 4 |
| Oc1ccc2c(c1)[C@@]13CCCC[C@@]1(O)[C@@H](C2)N(CC1CCC1)CC3 [BUTORPHANOL] | 0 | 0 | Inactive | Inactive | 0 | < 4 | Inactive | 0 | < 4 | Inactive | 0 | < 4 | Inactive | 0 | < 4 | Inactive | 0 | < 4 |
| C=CCN1C[C@H](C(=O)N(CCCN(C)C)C(=O)NCC)C[C@@H]2c3cccc4[nH]cc(c34)C[C@H]21 [CABERGOLINE] | 0 | 0 | Inactive | Inactive | 0 | < 4 | Inactive | 0 | < 4 | Inactive | 0 | < 4 | Inactive | 0 | < 4 | Inactive | 0 | < 4 |
| C=C1/C(=C\C=C2/CCC[C@]3(C)[C@@H]([C@H](C)/C=C/[C@@H](O)C4CC4)CC[C@@H]23)C[C@@H](O)C[C@@H]1O [CALCIPOTRIENE] | 0 | 0 | Inactive | Inactive | 0 | < 4 | Inactive | 0.3 | < 4 | Inactive | 0 | < 4 | Inactive | 0 | < 4 | Inactive | 0 | < 4 |
| C=C1/C(=C\C=C2/CCC[C@]3(C)[C@@H]([C@H](C)CCCC(C)(C)O)CC[C@@H]23)C[C@@H](O)C[C@@H]1O [CALCITRIOL] | 0 | 0 | Inactive | Inactive | 0 | < 4 | Inactive | 0 | < 4 | Inactive | 0 | < 4 | Inactive | 0 | < 4 | Inactive | 0 | < 4 |
| C[C@H](CS)C(=O)N1CCC[C@H]1C(=O)O [CAPTOPRIL] | 0 | 0 | Inactive | Inactive | 1.1 | >= 4 | Inactive | 1.5 | >= 4 | Inactive | 0.7 | >= 4 | Inactive | 0.4 | < 4 | Inactive | 0 | < 4 |
| CC(C)(C)NCC(O)COc1cccc2c1CCC(=O)N2 (stereo unspecified) [CARTEOLOL] | 0 | 0 | Inactive | Inactive | 0 | < 4 | Inactive | 0.5 | < 4 | Inactive | 0.5 | < 4 | Inactive | 0.5 | < 4 | Inactive | 0 | < 4 |
